Patent publication US20080167384A1, “Use of Zeaxanthin For the Treatment of Diseases of the Peripheral Retina” (priority 2005, published 2008)

Assay: Trial of zeaxanthin supplementation: macular pigment density monitored by heterochromatic flicker photometry (HCFP)
Type: in vivo
Conditions: Zeaxanthin 20 mg/day, 6-12 months
Procedure: The usefulness of zeaxanthin for the purposes of the present invention can be seen from the results of a trial with a duration of 6-12 months carried out with 46 subjects which were randomized to two treatment groups: Zeaxanthin, 20 mg/day (n=23), and Placebo (n=23). Macular pigment density (MPD) during this trial was monitored monthly using heterochromatic flicker photometry (HCFP) by independently measuring luminances at central and eccentric (5°=reference) locations. MPD is then calculated by subtracting the luminance at the reference (=eccentric) location from the luminance at the retinal centre.

CC1=C(/C=C/C(C)=C/C=C/C(C)=C/C=C/C=C(C)/C=C/C=C(C)/C=C/C2=C(C)C[C@@H](O)CC2(C)C)C(C)(C)C[C@H](O)C1 [zeaxanthin]
rise of luminance at the eccentric reference location (HCFP, eccentric (5°) reference location): approximately 8% | rise of luminance at the central location (HCFP, retinal centre): approximately 8% | increase of macular pigment density (MPD) computed with the pre-supplementation eccentric reference luminance (actual central luminances minus pre-supplementation eccentric reference luminance): about 11%
